Experimental data from patent publication US9234000B2, “Benzylamine derivatives as inhibitors of plasma kallikrein” (KalVista Pharmaceuticals Limited, priority 2011, dated 2016).
Converted amounts (≈) assume the structure as drawn. Read-outs that look alike come from different tables or passages of the source.

Tests used:
physchem = conditions: for solubility in PO4 buffer: pH 7
Protocol: Determination of the Kinetic Solubility in Phosphate Buffer
After shaking for approximately 30 seconds the reduction in light transmission of these samples, at 650 nm, was measured (Molecular Devices Spectromax UV/visible spectrophotometer). A second measurement was taken at approximately 30 seconds later.

Human plasma kallikrein = Human plasma kallikrein (Homo sapiens (Human), UniProt P03952); assay: Determination of the IC50 for plasma kallikrein; format: biochemical; conditions: 37° C., read-out: IC50 (human PKal)
Outline: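 Human plasma kallikrein incubated at 37° C with fluorogenic substrate H-DPro-Phe-Arg-AFC and varying compound concentrations. Initial reaction rate followed by absorbance change at 410 nm to give residual activity and IC50.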

Human KLK1 = Human KLK1 (Homo sapiens (Human), UniProt P06870); assay: Determination of the IC50 for KLK1; format: biochemical; conditions: Human KLK1, 37° C., substrate H-DVal-Leu-Arg-AFC; Table 13
Outline: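 Human KLK1 incubated at 37° C with fluorogenic substrate H-DVal-Leu-Arg-AFC and a range of test compound concentrations. Residual activity taken as initial reaction rate from absorbance change at 410 nm; IC50 derived from these rates.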

[1] = fluorogenic substrate H-DPro-Phe-Arg-AFC

Sequence of Human plasma kallikrein (P03952 391-638): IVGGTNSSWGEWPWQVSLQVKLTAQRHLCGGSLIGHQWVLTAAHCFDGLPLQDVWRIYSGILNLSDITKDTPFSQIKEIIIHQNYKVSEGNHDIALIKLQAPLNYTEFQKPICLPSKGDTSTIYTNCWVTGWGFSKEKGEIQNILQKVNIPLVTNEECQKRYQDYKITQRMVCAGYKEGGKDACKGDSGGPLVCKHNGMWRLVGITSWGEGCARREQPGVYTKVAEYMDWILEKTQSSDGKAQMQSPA
Sequence of Human plasma kallikrein (P03952 20-390 partner): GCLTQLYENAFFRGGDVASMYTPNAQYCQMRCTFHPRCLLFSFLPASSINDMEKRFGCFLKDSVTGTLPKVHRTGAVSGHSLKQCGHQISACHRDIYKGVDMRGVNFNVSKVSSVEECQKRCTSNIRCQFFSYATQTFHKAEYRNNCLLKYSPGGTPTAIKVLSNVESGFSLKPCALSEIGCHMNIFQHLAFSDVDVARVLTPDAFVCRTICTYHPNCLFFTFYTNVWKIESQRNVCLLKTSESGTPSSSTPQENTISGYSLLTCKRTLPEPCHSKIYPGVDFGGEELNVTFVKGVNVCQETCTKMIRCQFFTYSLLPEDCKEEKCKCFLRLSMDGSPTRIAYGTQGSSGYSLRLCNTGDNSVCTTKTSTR
Sequence of Human KLK1 (P06870 25-262): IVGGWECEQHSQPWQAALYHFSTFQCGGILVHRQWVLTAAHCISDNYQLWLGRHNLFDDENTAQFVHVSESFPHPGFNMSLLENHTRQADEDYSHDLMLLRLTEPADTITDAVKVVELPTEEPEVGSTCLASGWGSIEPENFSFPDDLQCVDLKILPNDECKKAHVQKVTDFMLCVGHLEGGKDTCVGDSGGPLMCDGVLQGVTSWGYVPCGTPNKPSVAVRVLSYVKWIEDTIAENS

Structure (SMILES)	solubility in PO4 buffer (physchem)	IC50 (Human plasma kallikrein; [1])	solubility (physchem; pH 7, aqueous buffer, kinetic from dmso stock)	IC50 (Human plasma kallikrein; substrate H-DPro-Phe-Arg-AFC)	IC50 (Human KLK1)
CCOc1ccc(C[C@@H](NS(C)(=O)=O)C(=O)N[C@@H](Cc2ccccc2)C(=O)NCc2ccc(CN)cc2)cc1 [Example 2, (R)—N—[(S)-1-(4-Aminomethyl-benzylcarbamoyl)-2-phenyl-ethyl]-3-(4-ethoxy-phenyl)-2-methanesulfonylamino-propionamide]	> 235 µM	820 nM	–	–	–
NCc1ccc(CNC(=O)[C@H](Cc2ccccc2)NC(=O)[C@H](N)CC2CCCCC2)cc1 [Example 8, (R)-2-Amino-N-[(S)-1-(4-aminomethyl-benzylcarbamoyl)-2-phenyl-ethyl]-3-cyclohexyl-propionamide]	> 235 µM	–	–	–	–
CCC(=O)N[C@H](CC1CCCCC1)C(=O)N[C@@H](Cc1ccccc1)C(=O)NCc1ccc(CN)cc1 [Example 10, (S)-N-(4-Aminomethyl-benzyl)-2-((R)-3-cyclohexyl-2-propionylamino-propionylamino)-3-phenyl-propionamide]	> 235 µM	7200 nM	–	–	–
CS(=O)(=O)N[C@H](CC1CCCCC1)C(=O)N[C@@H](Cc1ccccc1)C(=O)NCc1ccc(CN)cc1 [Example 11, (R)-N-[(S)-1-(4-Aminomethyl-benzylcarbamoyl)-2-phenyl-ethyl]-3-cyclohexyl-2-methanesulfonylamino-propionamide]	> 235 µM	1700 nM	–	–	–
CCOc1ccc(C[C@@H](NC(=O)CC)C(=O)N[C@@H](Cc2ccccc2)C(=O)NCc2ccc(CN)cc2Cl)cc1 [Example 12, (S)-N-(4-Aminomethyl-2-chloro-benzyl)-2-[(R)-3-(4-ethoxy-phenyl)-2-propionylamino-propionylamino]-3-phenyl-propionamide]	> 235 µM	290 nM	–	–	–
CCOc1ccc(C[C@@H](NC(=O)c2ccc(-c3ccccc3)cc2)C(=O)N[C@@H](Cc2ccccc2)C(=O)NCc2ccc(CN)cc2)cc1 [Example 57, Biphenyl-4-carboxylic acid [(R)-1-[(S)-1-(4-aminomethyl-benzylcarbamoyl)-2-phenyl-ethylcarbamoyl]-2-(4-ethoxy-phenyl)-ethyl]-amide]	–	10000 nM	36 µM (≈ 23.6 µg/mL)	–	–
CCOc1ccc(C[C@@H](N)C(=O)N[C@H](C(=O)NCc2ccc(CN)cc2)[C@@H](O)c2ccccc2)cc1 [Example 61, (R)-2-Amino-N-[(1S,2S)-1-(4-aminomethyl-benzylcarbamoyl)-2-hydroxy-2-phenyl-ethyl]-3-(4-ethoxy-phenyl)-propionamide]	> 235 µM	220 nM	–	–	–
CCOc1ccc(C[C@@H](NC(=O)CC)C(=O)N[C@H](C(=O)NCc2ccc(CN)cc2)[C@@H](O)c2ccccc2)cc1 [Example 63, (2S,3S)-N-(4-Aminomethyl-benzyl)-2-[(R)-3-(4-ethoxy-phenyl)-2-propionylamino-propionylamino]-3-hydroxy-3-phenyl-propionamide]	> 235 µM	52 nM	–	–	–
CCOc1ccc(C[C@@H](NC(=O)CC)C(=O)N(CC)[C@H](Cc2ccccc2)C(=O)NCc2ccc(CN)cc2)cc1 [Example 64, (R)-N-(4-Aminomethyl-benzyl)-2-{[(R)-3-(4-ethoxy-phenyl)-2-propionylamino-propionyl]-ethyl-amino}-3-phenyl-propionamide]	> 235 µM	3400 nM	–	–	–
CCOc1ccc(C[C@@H](NC(=O)c2ccccc2)C(=O)N[C@@H](Cc2ccc(C(F)(F)F)cc2)C(=O)NCc2ccc(CN)cc2)cc1 [Example 148, N-[(R)-1-[(S)-1-(4-Aminomethyl-benzylcarbamoyl)-2-(4-trifluoromethyl-phenyl)-ethylcarbamoyl]-2-(4-ethoxy-phenyl)-ethyl]-benzamide]	–	–	–	934 nM	> 10000 nM
CCOc1ccc(C[C@@H](NC(=O)c2ccccc2)C(=O)N[C@@H](Cc2cccc(F)c2)C(=O)NCc2ccc(CN)cc2)cc1 [Example 149, N-[(R)-1-[(S)-1-(4-Aminomethyl-benzylcarbamoyl)-2-(3-fluoro-phenyl)-ethylcarbamoyl]-2-(4-ethoxy-phenyl)-ethyl]-benzamide]	–	–	–	91 nM	> 10000 nM
CCOc1ccc(C[C@@H](NC(=O)c2ccccc2)C(=O)N[C@@H](Cc2ccccc2)C(=O)NCc2ccc(CN)c(C(F)(F)F)c2)cc1 [Example 156, N-[(R)-1-[(S)-1-(4-Aminomethyl-3-trifluoromethyl-benzylcarbamoyl)-2-phenyl-ethylcarbamoyl]-2-(4-ethoxy-phenyl)-ethyl]-benzamide]	–	–	–	1080 nM	> 10000 nM
CCOc1ccc(C[C@@H](NC(=O)c2ccncc2)C(=O)N[C@@H](Cc2ccc(F)c(F)c2)C(=O)NCc2ccc(CN)cc2)cc1 [Example 161, N-[(R)-1-[(S)-1-(4-Aminomethyl-benzylcarbamoyl)-2-(3,4-difluoro-phenyl)-ethylcarbamoyl]-2-(4-ethoxy-phenyl)-ethyl]-isonicotinamide]	–	–	–	49 nM	6900 nM
CCOc1ccc(C[C@@H](NC(=O)c2ccc(Cl)cc2)C(=O)N[C@@H](Cc2ccccn2)C(=O)NCc2ccc(CN)cc2)cc1 [Example 163, N-[(R)-1-[(S)-1-(4-Aminomethyl-benzylcarbamoyl)-2-pyridin-2-yl-ethylcarbamoyl]-2-(4-ethoxy-phenyl)-ethyl]-4-chloro-benzamide]	–	–	–	64 nM	> 10000 nM
CCOc1ccc(C[C@@H](NC(=O)c2ccc(C)cc2)C(=O)N[C@@H](Cc2ccccn2)C(=O)NCc2ccc(CN)cc2)cc1 [Example 164, N-[(R)-1-[(S)-1-(4-Aminomethyl-benzylcarbamoyl)-2-pyridin-2-yl-ethylcarbamoyl]-2-(4-ethoxy-phenyl)-ethyl]-4-methyl-benzamide]	–	–	–	50 nM	> 10000 nM
CCOc1ccc(C[C@@H](NC(=O)c2ccccn2)C(=O)N[C@@H](Cc2ccc(Cl)c(Cl)c2)C(=O)NCc2ccc(CN)cc2)cc1 [Example 165, Pyridine-2-carboxylic acid [(R)-1-[(S)-1-(4-aminomethyl-benzylcarbamoyl)-2-(3,4-dichloro-phenyl)-ethylcarbamoyl]-2-(4-ethoxy-phenyl)-ethyl]-amide]	–	–	–	70 nM	> 10000 nM
CCOc1ccc(C[C@@H](NC(=O)CC)C(=O)N[C@@H](Cc2ccccn2)C(=O)NCc2ccc(CN)cc2)cc1 [Example 166, (R)-N-[(S)-1-(4-Aminomethyl-benzylcarbamoyl)-2-pyridin-2-yl-ethyl]-3-(4-ethoxy-phenyl)-2-propionylamino-propionamide]	–	–	–	262 nM	> 10000 nM
CCOc1ccc(C[C@@H](NC(=O)c2ccncc2)C(=O)N[C@@H](Cc2ccccc2)C(=O)NCc2ccc(CN)c(F)c2)cc1 [Example 167, N-[(R)-1-[(S)-1-(4-Aminomethyl-3-fluoro-benzylcarbamoyl)-2-phenyl-ethylcarbamoyl]-2-(4-ethoxy-phenyl)-ethyl]-isonicotinamide]	–	–	–	80 nM	> 10000 nM
CCOc1ccc(C[C@@H](NC(=O)c2ccccn2)C(=O)N[C@@H](Cc2ccccc2)C(=O)NCc2ccc(CN)c(F)c2)cc1 [Example 168, Pyridine-2-carboxylic acid [(R)-1-[(S)-1-(4-aminomethyl-3-fluoro-benzylcarbamoyl)-2-phenyl-ethylcarbamoyl]-2-(4-ethoxy-phenyl)-ethyl]-amide]	–	–	–	76 nM	> 10000 nM
CCOc1ccc(C[C@@H](NC(=O)c2cccs2)C(=O)N[C@@H](Cc2ccc(Cl)c(Cl)c2)C(=O)NCc2ccc(CN)cc2)cc1 [Example 169, Thiophene-2-carboxylic acid [(R)-1-[(S)-1-(4-aminomethyl-benzylcarbamoyl)-2-(3,4-dichloro-phenyl)-ethylcarbamoyl]-2-(4-ethoxy-phenyl)-ethyl]-amide]	–	–	–	44 nM	9900 nM
CCOc1ccc(C[C@@H](NC(=O)CC)C(=O)N[C@@H](Cc2cccnc2)C(=O)NCc2ccc(CN)cc2)cc1 [Example 170, (R)-N-[(S)-1-(4-Aminomethyl-benzylcarbamoyl)-2-pyridin-3-yl-ethyl]-3-(4-ethoxy-phenyl)-2-propionylamino-propionamide]	–	–	–	51 nM	> 10000 nM
CCOc1ccc(C[C@@H](NC(=O)c2ccncc2)C(=O)N[C@@H](Cc2ccc(Cl)c(Cl)c2)C(=O)NCc2ccc(CN)cc2)cc1 [Example 171, N-[(R)-1-[(S)-1-(4-Aminomethyl-benzylcarbamoyl)-2-(3,4-dichloro-phenyl)-ethylcarbamoyl]-2-(4-ethoxy-phenyl)-ethyl]-isonicotinamide]	–	–	–	123 nM	9400 nM
CCOc1ccc(C[C@@H](NC(=O)CC(F)(F)F)C(=O)N[C@@H](Cc2ccc(Cl)c(Cl)c2)C(=O)NCc2ccc(CN)cc2)cc1 [Example 172, N-[(R)-1-[(S)-1-(4-Aminomethyl-benzylcarbamoyl)-2-(3,4-dichloro-phenyl)-ethylcarbamoyl]-2-(4-ethoxy-phenyl)-ethyl]-3,3,3-trifluoro-propionamide]	–	–	–	881 nM	> 10000 nM
CCOc1ccc(C[C@@H](NC(=O)c2ccccc2)C(=O)N[C@@H](Cc2c[nH]cn2)C(=O)NCc2ccc(CN)cc2)cc1 [Example 177, N-[(R)-1-[(S)-1-(4-Aminomethyl-benzylcarbamoyl)-2-(1H-imidazol-4-yl)-ethylcarbamoyl]-2-(4-ethoxy-phenyl)-ethyl]-benzamide]	–	–	–	457 nM	> 10000 nM
CCOc1ccc(C[C@@H](NC(=O)c2ccccc2)C(=O)N[C@@H](Cc2ccccc2F)C(=O)NCc2ccc(CN)cc2)cc1 [Example 180, N-[(R)-1-[(S)-1-(4-Aminomethyl-benzylcarbamoyl)-2-(2-fluoro-phenyl)-ethylcarbamoyl]-2-(4-ethoxy-phenyl)-ethyl]-benzamide]	–	–	–	73 nM	> 10000 nM
